According to ChEMBL document CHEMBL1201862, “PubChem BioAssay data set” (2004):
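Exposure lasted 48 hours, with cells grown in 96-well plates and compounds tested at five concentrations. GI50 marks 50% less growth.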 Activity calls are given as the source filed them. Rule as the data show it: active = GI50 up to about 1.1 µM and inactive = higher.

Experiments:
Assay in all cases: DTP human tumour cell line panel, 48 h
OVCAR-4 = tested on: OVCAR-4
HT-29 = tested on: HT-29
KM12 = tested on: KM12
IGROV-1 = tested on: IGROV-1
TK-10 = tested on: TK-10
K562 = tested on: K562
NCI-H23 = tested on: NCI-H23
OVCAR-8 = tested on: OVCAR-8
BT-549 = tested on: BT-549
ACHN = tested on: ACHN
HOP-62 = tested on: HOP-62
PC-3 = tested on: PC-3
SR = tested on: SR
HOP-92 = tested on: HOP-92
OVCAR-3 = tested on: OVCAR-3
SNB-19 = tested on: SNB-19
MDA-N = tested on: MDA-N
SW-620 = tested on: SW-620
SNB-75 = tested on: SNB-75
RXF 393 = tested on: RXF 393

Row | Structure (SMILES) | GI50 (OVCAR-4) | GI50 (HT-29) | GI50 (KM12) | GI50 (IGROV-1) | GI50 (TK-10) | GI50 (K562) | GI50 (NCI-H23) | GI50 (OVCAR-8) | GI50 (BT-549) | GI50 (ACHN) | GI50 (HOP-62) | GI50 (PC-3) | GI50 (SR) | GI50 (HOP-92) | GI50 (OVCAR-3) | GI50 (SNB-19) | GI50 (MDA-N) | GI50 (SW-620) | GI50 (SNB-75) | GI50 (RXF 393)
1 | Nc1nc(O)c2c(n1)NCN(CCCN1CCOCC1)C2 | > 100 µM (inactive) | > 100 µM (inactive) | > 100 µM (inactive) | > 100 µM (inactive) | > 100 µM (inactive) | > 100 µM (inactive) | > 100 µM (inactive) | > 100 µM (inactive) | > 100 µM (inactive) | > 100 µM (inactive) | > 100 µM (inactive) | > 100 µM (inactive) | > 100 µM (inactive) | > 100 µM (inactive) | 55.3 µM (inactive) | > 100 µM (inactive) | > 100 µM (inactive) | > 100 µM (inactive) | – | –
2 | COc1ccc(-n2sc3ncc(C)cc3c2=O)cc1 | 33.4 µM (inactive) | 17.4 µM (inactive) | 16.1 µM (inactive) | 31.9 µM (inactive) | 19.1 µM (inactive) | 39 µM (inactive) | 26.2 µM (inactive) | 18.2 µM (inactive) | 19.4 µM (inactive) | 18.3 µM (inactive) | 18.2 µM (inactive) | 15.6 µM (inactive) | 35.4 µM (inactive) | 19.9 µM (inactive) | 16.9 µM (inactive) | > 100 µM (inactive) | 16.5 µM (inactive) | 33.8 µM (inactive) | – | –
3 | O=C(c1ccsc1)c1nccc2c1cnc1ccccc12 | 94.8 µM (inactive) | > 100 µM (inactive) | > 100 µM (inactive) | 0.286 µM (active) | 42.6 µM (inactive) | – | 45.3 µM (inactive) | > 100 µM (inactive) | > 100 µM (inactive) | > 100 µM (inactive) | 25.5 µM (inactive) | > 100 µM (inactive) | – | 22.5 µM (inactive) | > 100 µM (inactive) | 53.5 µM (inactive) | > 100 µM (inactive) | > 100 µM (inactive) | 30.5 µM (inactive) | 84.9 µM (inactive)
4 | Cc1ccccc1Nc1nc(NNC(=O)Cc2ccccc2)nc(NNC(=O)c2ccncc2)n1 | > 10 µM (inactive) | > 10 µM (inactive) | > 10 µM (inactive) | > 10 µM (inactive) | > 10 µM (inactive) | > 10 µM (inactive) | – | > 10 µM (inactive) | > 10 µM (inactive) | – | > 10 µM (inactive) | – | > 10 µM (inactive) | > 10 µM (inactive) | – | – | > 10 µM (inactive) | – | > 10 µM (inactive) | –
5 | CC(=O)c1cccc(Nc2nc3ccccc3c3[nH]c4ccccc4c23)c1 | – | 4.02 µM (inactive) | 4.66 µM (inactive) | 2.88 µM (inactive) | 7.55 µM (inactive) | 4.69 µM (inactive) | 9.38 µM (inactive) | 3.86 µM (inactive) | > 100 µM (inactive) | 3.63 µM (inactive) | 7.31 µM (inactive) | 4.65 µM (inactive) | – | 2.87 µM (inactive) | 2.48 µM (inactive) | 16.2 µM (inactive) | 4.73 µM (inactive) | 4.81 µM (inactive) | – | –
6 | COc1ccc(-c2cc(-c3cc(C)cc(Br)c3O)no2)cc1 | 3.37 µM (inactive) | 31.6 µM (inactive) | 22.2 µM (inactive) | 10.8 µM (inactive) | 19.8 µM (inactive) | 14.1 µM (inactive) | 14.7 µM (inactive) | 4.31 µM (inactive) | 14.9 µM (inactive) | 8.36 µM (inactive) | 8.67 µM (inactive) | 4.44 µM (inactive) | 67.5 µM (inactive) | – | 6.38 µM (inactive) | 10.5 µM (inactive) | 23.6 µM (inactive) | 16.3 µM (inactive) | 2.86 µM (inactive) | –
7 | COC(=O)Nc1nc2cc(C(=O)c3ccc[nH]3)ccc2[nH]1 | > 100 µM (inactive) | 0.415 µM (active) | 0.49 µM (active) | 1.7 µM (inactive) | 1.67 µM (inactive) | 0.387 µM (active) | 6.87 µM (inactive) | 3.18 µM (inactive) | > 100 µM (inactive) | – | 1.44 µM (inactive) | 0.348 µM (active) | – | – | – | 1.19 µM (inactive) | 0.134 µM (active) | 0.359 µM (active) | 0.235 µM (active) | 0.0895 µM (active)
8 | COC(=O)/C=C/c1ccc2nncnc2c1.COC(=O)/C=C\c1ccc2nncnc2c1 | > 100 µM (inactive) | 20 µM (inactive) | 31.6 µM (inactive) | 85.5 µM (inactive) | > 100 µM (inactive) | 43 µM (inactive) | 10 µM (inactive) | 57.9 µM (inactive) | 60.8 µM (inactive) | > 100 µM (inactive) | 70.5 µM (inactive) | 34.7 µM (inactive) | 56.9 µM (inactive) | – | 32.7 µM (inactive) | 57.4 µM (inactive) | 20.9 µM (inactive) | 87.9 µM (inactive) | 18.7 µM (inactive) | –
9 | Cn1c2c(c3ccccc31)CCN1C(=O)C3SC21C1C(=O)N(c2ccccc2)C(=O)C31 (stereo unspecified) | > 100 µM (inactive) | > 100 µM (inactive) | > 100 µM (inactive) | > 100 µM (inactive) | 23.8 µM (inactive) | 40.4 µM (inactive) | > 100 µM (inactive) | > 100 µM (inactive) | > 100 µM (inactive) | 33 µM (inactive) | > 100 µM (inactive) | – | 35.3 µM (inactive) | > 100 µM (inactive) | > 100 µM (inactive) | > 100 µM (inactive) | > 100 µM (inactive) | 36.8 µM (inactive) | – | > 100 µM (inactive)
10 | Clc1ccc(Nc2nn3c(CCCCCCCCc4nnc5sc(Nc6ccc(Cl)cc6)nn45)nnc3s2)cc1 | > 100 µM (inactive) | 49.3 µM (inactive) | > 100 µM (inactive) | – | 29.4 µM (inactive) | 50.5 µM (inactive) | > 100 µM (inactive) | > 100 µM (inactive) | > 100 µM (inactive) | > 100 µM (inactive) | 38.3 µM (inactive) | > 100 µM (inactive) | – | > 100 µM (inactive) | > 100 µM (inactive) | 25.1 µM (inactive) | > 100 µM (inactive) | > 100 µM (inactive) | 23.3 µM (inactive) | > 100 µM (inactive)
11 | O=C(SC1=NCCN1)c1cccc2ccccc12 | 59.8 µM (inactive) | 38.6 µM (inactive) | 37 µM (inactive) | 63.7 µM (inactive) | > 100 µM (inactive) | 25.4 µM (inactive) | 63.5 µM (inactive) | 71.9 µM (inactive) | 64.7 µM (inactive) | 66.8 µM (inactive) | 55 µM (inactive) | 42 µM (inactive) | – | 42.1 µM (inactive) | 56.9 µM (inactive) | > 100 µM (inactive) | 76 µM (inactive) | 33.8 µM (inactive) | 22.8 µM (inactive) | 53.7 µM (inactive)
12 | CC(=O)NNc1nc(C)c(C(/C=C/c2cccc([N+](=O)[O-])c2)=N/NC(=S)NN)s1 | > 100 µM (inactive) | > 100 µM (inactive) | > 100 µM (inactive) | > 100 µM (inactive) | > 100 µM (inactive) | > 100 µM (inactive) | > 100 µM (inactive) | > 100 µM (inactive) | > 100 µM (inactive) | > 100 µM (inactive) | 91 µM (inactive) | > 100 µM (inactive) | – | > 100 µM (inactive) | > 100 µM (inactive) | > 100 µM (inactive) | > 100 µM (inactive) | > 100 µM (inactive) | > 100 µM (inactive) | > 100 µM (inactive)
13 | Cc1nc2c(cc1C(=O)N/N=C/c1ccc([N+](=O)[O-])cc1)c(=O)n(C)c(=O)n2C | > 100 µM (inactive) | > 100 µM (inactive) | > 100 µM (inactive) | 42.4 µM (inactive) | 54.3 µM (inactive) | > 100 µM (inactive) | 41.8 µM (inactive) | 32.4 µM (inactive) | 30.5 µM (inactive) | > 100 µM (inactive) | 16.5 µM (inactive) | > 100 µM (inactive) | – | – | > 100 µM (inactive) | 21.4 µM (inactive) | > 100 µM (inactive) | > 100 µM (inactive) | > 100 µM (inactive) | 18.6 µM (inactive)
14 | O=C1CCCNn2c(nc3ncccc3c2=O)N1 | > 100 µM (inactive) | > 100 µM (inactive) | 78.7 µM (inactive) | > 100 µM (inactive) | > 100 µM (inactive) | > 100 µM (inactive) | > 100 µM (inactive) | > 100 µM (inactive) | > 100 µM (inactive) | > 100 µM (inactive) | > 100 µM (inactive) | > 100 µM (inactive) | – | > 100 µM (inactive) | > 100 µM (inactive) | > 100 µM (inactive) | > 100 µM (inactive) | > 100 µM (inactive) | 30.2 µM (inactive) | > 100 µM (inactive)
15 | O=C(O)c1cccc(F)c1C(=O)c1ccc2ccccc2c1 | > 100 µM (inactive) | > 100 µM (inactive) | > 100 µM (inactive) | > 100 µM (inactive) | > 100 µM (inactive) | > 100 µM (inactive) | – | > 100 µM (inactive) | > 100 µM (inactive) | > 100 µM (inactive) | > 100 µM (inactive) | > 100 µM (inactive) | – | > 100 µM (inactive) | > 100 µM (inactive) | > 100 µM (inactive) | > 100 µM (inactive) | > 100 µM (inactive) | 73.1 µM (inactive) | > 100 µM (inactive)
16 | Cc1ccc2c(O)cc(-c3cccc(Cl)c3)nc2n1 | > 62.1 µM (inactive) | < 0.0179 µM (active) | < 0.0196 µM (active) | 0.0155 µM (active) | > 59.8 µM (inactive) | < 0.0169 µM (active) | 0.272 µM (active) | 0.115 µM (active) | 0.278 µM (active) | 0.313 µM (active) | 0.0305 µM (active) | – | 0.0266 µM (active) | 1.25 µM (inactive) | < 0.01 µM (active) | 0.0705 µM (active) | 1 µM (active) | < 0.01 µM (active) | – | –
